From US20240383882A1 (Ecstasy LLC, priority 2020, published 2024)

System: male C57BL/6 mice
Assay: 55° C. warm-water tail-flick test (antinociception)
Assay type: in vivo
Conditions: Mus musculus; half maximal effective dose in mice; using one of: warm water tail-flick test, spared nerve injury, chronic constriction injury, or Complete Freund's adjuvant induced inflammatory pain (not stated which per compound); read-out: Biological Activity (ED50)
Method in brief: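 Mice with baseline tail-flick latency within 2 s at 55° C received compound s.c. and were retested at 30, 60, 90 and 120 min. % antinociception = 100×(test−control latency)/(20−control latency); ED50 in mg/kg.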

For CC(C)(c1ccccn1)N1CC[C@@](CCc2ccc(C#N)cc2)(c2ncc[nH]2)C1 [Compound 107, (R)-4-(2-(3-(1H-imidazol-2-yl)-1-(2-(pyridin-2-yl)propan-2-yl)pyrrolidin-3-yl)ethyl) benzonitrile], the ED50 was over 50 mg/kg.

CC(C)(c1ccccn1)N1CC[C@@](CCc2ccc(C#N)cc2)(c2ncc(C(F)(F)F)[nH]2)C1 [Compound 108, (R)-4-(2-(1-(2-(pyridin-2-yl)propan-2-yl)-3-(5-(trifluoromethyl)-1H-imidazol-2-yl)pyrrolidin-3-yl)ethyl) benzonitrile] gave an ED50 of over 50 mg/kg.

CC(C)(c1ccccn1)N1CC[C@@](CCc2ccc(C#N)cc2F)(COCc2ccccc2)C1 [Compound 109, (R)-4-(2-(3-((benzyloxy)methyl)-1-(2-(pyridin-2-yl)propan-2-yl)pyrrolidin-3-yl)ethyl)-3-fluorobenzonitrile] was tested, and the ED50 was over 50 mg/kg.

Work on CC(C)(c1ccccn1)N1CC[C@](CO)(CCc2ccc(C#N)c(F)c2)C1 [Compound 110, (R)-2-fluoro-4-(2-(3-(hydroxymethyl)-1-(2-(pyridin-2-yl)propan-2-yl)pyrrolidin-3-yl)ethyl) benzonitrile] yielded an ED50 of at most 30 mg/kg.

Work on CC(C)(c1ccccn1)N1CC[C@](CO)(CCc2ccc(C#N)cc2F)C1 [Compound 111, (R)-3-fluoro-4-(2-(3-(hydroxymethyl)-1-(2-(pyridin-2-yl)propan-2-yl)pyrrolidin-3-yl)ethyl) benzonitrile] yielded an ED50 of over 50 mg/kg.

Work on CC(C)(c1ccccn1)N1CC[C@@](CCc2ccc(C#N)c(F)c2)(COCc2ccccc2)C1 [Compound 112, (R)-4-(2-(3-((benzyloxy)methyl)-1-(2-(pyridin-2-yl)propan-2-yl)pyrrolidin-3-yl)ethyl)-2-fluorobenzonitrile] yielded an ED50 of over 50 mg/kg.

Molecule CC(C)(c1ccccn1)N1CC[C@@](CCc2ccc(C#N)cn2)(COCc2ccccc2)C1 [Compound 113, (R)-6-(2-(3-((benzyloxy)methyl)-1-(2-(pyridin-2-yl)propan-2-yl)pyrrolidin-3-yl)ethyl) nicotinonitrile] has an ED50 of over 50 mg/kg.

CC(C)(c1ccccn1)N1CC[C@](CO)(CCc2ccc(C#N)cn2)C1 [Compound 114, (R)-6-(2-(3-(hydroxymethyl)-1-(2-(pyridin-2-yl)propan-2-yl)pyrrolidin-3-yl)ethyl) nicotinonitrile] showed an ED50 of over 50 mg/kg.

With CC(C)(c1ccccn1)N1CC[C@](CN)(CCc2ccc(C#N)cc2)C1 [Compound 115, (S)-4-(2-(3-(aminomethyl)-1-(2-(pyridin-2-yl)propan-2-yl)pyrrolidin-3-yl)ethyl) benzonitrile] the ED50 was over 50 mg/kg.

CC(C)(c1ccccn1)N1CC[C@@](CCc2ccc(C#N)cc2)(C(O)(C(F)(F)F)C(F)(F)F)C1 [Compound 119, (R)-4-(2-(3-(1,1,1,3,3,3-hexafluoro-2-hydroxypropan-2-yl)-1-(2-(pyridin-2-yl)propan-2-yl)pyrrolidin-3-yl)ethyl) benzonitrile] was tested, and the ED50 was over 50 mg/kg.

In the case of CC(C)(c1ccccn1)N1CC[C@@](CCc2ccc(C#N)cc2)(c2nnco2)C1 [Compound 124, (R)-4-(2-(3-(1,3,4-oxadiazol-2-yl)-1-(2-(pyridin-2-yl)propan-2-yl)pyrrolidin-3-yl)ethyl) benzonitrile], the ED50 is reported as over 50 mg/kg.

In the case of CC(C)(c1ccccn1)N1CC[C@@](CCc2cccc(C#N)c2)(COCc2ccccc2)C1 [Compound 125, (R)-3-(2-(3-((benzyloxy)methyl)-1-(2-(pyridin-2-yl)propan-2-yl)pyrrolidin-3-yl)ethyl) benzonitrile], the ED50 is reported as over 50 mg/kg.

For CC(C)(c1ccccn1)N1CC[C@@](CCc2ccccc2C#N)(COCc2ccccc2)C1 [Compound 126, (R)-2-(2-(3-((benzyloxy)methyl)-1-(2-(pyridin-2-yl)propan-2-yl)pyrrolidin-3-yl)ethyl) benzonitrile], the ED50 was over 50 mg/kg.

Work on CC(C)(c1ccccn1)N1CC[C@](CO)(CCc2cccc(C#N)c2)C1 [Compound 127, (R)-3-(2-(3-(hydroxymethyl)-1-(2-(pyridin-2-yl)propan-2-yl)pyrrolidin-3-yl)ethyl) benzonitrile] yielded an ED50 of over 50 mg/kg.

CCOC[C@]1(CCc2cccc(C#N)c2)CCN(C(C)(C)c2ccccn2)C1 [Compound 128, (R)-3-(2-(3-(ethoxymethyl)-1-(2-(pyridin-2-yl)propan-2-yl)pyrrolidin-3-yl)ethyl) benzonitrile] gave an ED50 of over 50 mg/kg.

In the case of CC(C)(c1ccccn1)N1CC[C@](CO)(CCc2ccccc2C#N)C1 [Compound 129, (R)-2-(2-(3-(hydroxymethyl)-1-(2-(pyridin-2-yl)propan-2-yl)pyrrolidin-3-yl)ethyl) benzonitrile], the ED50 is reported as over 50 mg/kg.

CCOC[C@]1(CCc2ccccc2C#N)CCN(C(C)(C)c2ccccn2)C1 [Compound 130, (R)-2-(2-(3-(ethoxymethyl)-1-(2-(pyridin-2-yl)propan-2-yl)pyrrolidin-3-yl)ethyl) benzonitrile] was tested, and the ED50 was over 50 mg/kg.

Work on CC(C)(c1ccccn1)N1CC[C@@](CCc2ccc(C#N)cc2)(COCc2ccccc2)C1 [Compound 131, (R)-4-(2-(3-((benzyloxy)methyl)-1-(2-(pyridin-2-yl)propan-2-yl)pyrrolidin-3-yl)ethyl) benzonitrile] yielded an ED50 of over 50 mg/kg.

CCOC[C@]1(CCc2ccc(C#N)cc2)CCN(C(C)(C)c2ccccn2)C1 [Compound 132, (R)-4-(2-(3-(ethoxymethyl)-1-(2-(pyridin-2-yl)propan-2-yl)pyrrolidin-3-yl)ethyl) benzonitrile] showed an ED50 of over 50 mg/kg.

For CC(C)(c1ccccn1)N1CC[C@@](CCc2cccc(C#N)c2)([C@H](O)C(F)(F)F)C1 [Compound 133, 3-(2-((R)-1-(2-(pyridin-2-yl)propan-2-yl)-3-((S)-2,2,2-trifluoro-1-hydroxyethyl)pyrrolidin-3-yl)ethyl) benzonitrile], the ED50 was over 50 mg/kg.

Work on CCOC(C(F)(F)F)(C(F)(F)F)[C@]1(CCc2ccc(C#N)cc2)CCN(C(C)(C)c2ccccn2)C1 [Compound 137, (R)-4-(2-(3-(2-ethoxy-1,1,1,3,3,3-hexafluoropropan-2-yl)-1-(2-(pyridin-2-yl)propan-2-yl)pyrrolidin-3-yl)ethyl) benzonitrile] yielded an ED50 of over 50 mg/kg.

Work on CC(C)(c1ccccn1)N1CC[C@@](CCc2ccc(C#N)cc2)(C(=O)O)C1 [Compound 138, (R)-3-(4-cyanophenethyl)-1-(2-(pyridin-2-yl)propan-2-yl)pyrrolidine-3-carboxylic acid] yielded an ED50 of over 50 mg/kg.

For CCOC(=O)[C@]1(CCc2ccc(C#N)cc2)CCN(C(C)(C)c2ccccn2)C1 [Compound 139, ethyl (R)-3-(4-cyanophenethyl)-1-(2-(pyridin-2-yl)propan-2-yl)pyrrolidine-3-carboxylate], the ED50 was over 50 mg/kg.

Molecule CC(C)(c1ccc(C(F)(F)F)nc1)N1CC[C@@](CCc2ccc(C#N)cc2)(C(C)(C)O)C1 [Compound 140, (R)-4-(2-(3-(2-hydroxypropan-2-yl)-1-(2-(6-(trifluoromethyl)pyridin-3-yl)propan-2-yl)pyrrolidin-3-yl)ethyl) benzonitrile] has an ED50 of over 50 mg/kg.

For CC(C)(c1ccccn1)N1CC[C@@](CCc2ccc(C#N)s2)(COCc2ccccc2)C1 [Compound 141, (R)-5-(2-(3-((benzyloxy)methyl)-1-(2-(pyridin-2-yl)propan-2-yl)pyrrolidin-3-yl)ethyl)thiophene-2-carbonitrile], the ED50 was at most 30 mg/kg.

Work on COc1cccc(C(C)(C)N2CC[C@](CO)(CCc3ccc(C#N)cc3)C2)c1 [Compound 142, (R)-4-(2-(3-(hydroxymethyl)-1-(2-(3-methoxyphenyl)propan-2-yl)pyrrolidin-3-yl)ethyl) benzonitrile] yielded an ED50 of over 50 mg/kg.
